# Measurements taken from BindingDB's records for doi:10.1021/bi00407a006 (Enscp, 1988).
# pKi: −log10 of the molar value.
# Target: T1, Glutamine--fructose-6-phosphate aminotransferase [isomerizing] (Escherichia coli (strain K12), UniProt P17169)
# T1 sequence (P17169 whole entry): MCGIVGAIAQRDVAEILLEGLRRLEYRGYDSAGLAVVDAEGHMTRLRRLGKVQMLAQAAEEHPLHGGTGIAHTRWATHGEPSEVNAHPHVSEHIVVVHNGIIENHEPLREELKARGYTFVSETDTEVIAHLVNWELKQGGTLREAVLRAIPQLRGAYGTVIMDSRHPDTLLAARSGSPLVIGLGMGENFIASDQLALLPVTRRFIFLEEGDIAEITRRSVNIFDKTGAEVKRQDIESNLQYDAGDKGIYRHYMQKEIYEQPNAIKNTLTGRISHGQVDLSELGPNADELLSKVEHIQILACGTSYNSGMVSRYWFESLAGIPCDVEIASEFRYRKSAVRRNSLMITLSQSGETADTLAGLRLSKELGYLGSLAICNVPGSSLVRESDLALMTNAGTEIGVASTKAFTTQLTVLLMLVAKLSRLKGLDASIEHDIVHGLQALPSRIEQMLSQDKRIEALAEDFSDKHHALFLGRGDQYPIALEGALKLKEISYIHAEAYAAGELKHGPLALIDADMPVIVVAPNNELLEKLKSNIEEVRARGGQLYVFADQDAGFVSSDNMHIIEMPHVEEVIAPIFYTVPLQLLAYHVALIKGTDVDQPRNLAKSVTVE
row,SMILES,pKi
1,COC(=O)/C=C/C(=O)NC[C@H](N)C(=O)O [(2S)-2-azaniumyl-3-[[(E)-4-methoxy-4-oxobut-2-enoyl]amino]propanoate],6.46
2,N[C@@H](CNC(=O)/C=C/C(=O)O)C(=O)O [(E)-4-[[(2S)-2-azaniumyl-2-carboxylatoethyl]amino]-4-oxobut-2-enoate],4.26
3,"N#[N+][CH-]C(=O)CC[C@H](N)C(=O)NCC(=O)O [(Z,5S)-5-amino-6-(carboxymethylamino)-1-diazonio-6-oxohex-1-en-2-olate]",5.85
